Reference: PubChem BioAssay AID180 (DTP/NCI, 2004)
“And” between values parts separate entries of the source, which are not always exact repeats. Equal entries are not always repeated.

Test system: BDF1 mice, Adenocarcinoma 755 s.c., tumor weight T/C
Assay: NCI In Vivo Anticancer Drug Screen. Data for tumor model Adenocarcinoma 755 (subcutaneous) in B6D2F1 (BDF1) mice
Conditions: endpoint: mean tumor weight, schedule: Q01DX011 (ip), higher = larger tumour
Method in brief: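 Tumor-bearing mice receive test compound while controls get vehicle alone. Antitumor effect is scored from survival or tumor dimensions as a T/C quotient.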

[1] = dose: 225.0 mg/kg/injection, vehicle: methylcellulose (MC)
[2] = dose: 25.0 mg/kg/injection, vehicle: methylcellulose (MC)

SMILES: O=P(N1CCCCC1)(N1CC1)N1CC1
- T/C (dose: 1.8 mg/kg/injection, vehicle: carboxymethylcellulose (CMC)): 68 % of control
- T/C (dose: 1.8 mg/kg/injection, vehicle: saline): 44 % of control
- T/C (dose: 3.5 mg/kg/injection, vehicle: carboxymethylcellulose (CMC)): 92 % of control
- T/C (dose: 3.5 mg/kg/injection, vehicle: saline): 38 % of control
- T/C (dose: 7.0 mg/kg/injection, vehicle: saline): 15 % of control
- T/C (dose: 14.0 mg/kg/injection, vehicle: carboxymethylcellulose (CMC)): 45 % of control

SMILES: CS(=O)(=O)OCCC(=O)NCCCCNC(=O)CCOS(C)(=O)=O
- T/C (dose: 56.0 mg/kg/injection, vehicle: carboxymethylcellulose (CMC)): 66 % of control
- T/C (dose: 56.0 mg/kg/injection, vehicle: methylcellulose (MC)): 85 % of control
- T/C (dose: 113.0 mg/kg/injection, vehicle: carboxymethylcellulose (CMC)): 48 % of control
- T/C (dose: 113.0 mg/kg/injection, vehicle: methylcellulose (MC)): 31 % of control
- T/C (dose: 225.0 mg/kg/injection, vehicle: carboxymethylcellulose (CMC)): 12 % of control
- T/C [1]: 8 % of control
- T/C (dose: 450.0 mg/kg/injection, vehicle: carboxymethylcellulose (CMC)): 7 % of control

SMILES: NC(Cc1cccs1)C(=O)O (stereo not given)
- T/C (dose: 125.0 mg/kg/injection, vehicle: carboxymethylcellulose (CMC)): 71 % of control and 72 % of control
- T/C (dose: 125.0 mg/kg/injection, vehicle: methylcellulose (MC)): 90 % of control
- T/C (dose: 250.0 mg/kg/injection, vehicle: carboxymethylcellulose (CMC)): 91 % of control and 106 % of control
- T/C (dose: 250.0 mg/kg/injection, vehicle: methylcellulose (MC)): 155 % of control
- T/C (dose: 500.0 mg/kg/injection, vehicle: carboxymethylcellulose (CMC)): 65 % of control and 78 % of control
- T/C (dose: 500.0 mg/kg/injection, vehicle: methylcellulose (MC)): 59 % of control
- T/C (dose: 1000.0 mg/kg/injection, vehicle: carboxymethylcellulose (CMC)): 96 % of control and 102 % of control
- T/C (dose: 1000.0 mg/kg/injection, vehicle: methylcellulose (MC)): 52 % of control

SMILES: C=CCC1(CC)C(=O)NC(=O)NC1=O
- T/C (dose: 10.0 mg/kg/injection, vehicle: carboxymethylcellulose (CMC)): 83 % of control
- T/C (dose: 22.0 mg/kg/injection, vehicle: methylcellulose (MC)): 53 % of control
- T/C [2]: 112 % of control
- T/C (dose: 42.0 mg/kg/injection, vehicle: methylcellulose (MC)): 59 % of control
- T/C (dose: 50.0 mg/kg/injection, vehicle: methylcellulose (MC)): 94 % of control and 79 % of control
- T/C (dose: 85.0 mg/kg/injection, vehicle: methylcellulose (MC)): 23 % of control
- T/C (dose: 100.0 mg/kg/injection, vehicle: methylcellulose (MC)): 61 % of control and 66 % of control
- T/C (dose: 170.0 mg/kg/injection, vehicle: carboxymethylcellulose (CMC)): 49 % of control
- T/C (dose: 170.0 mg/kg/injection, vehicle: methylcellulose (MC)): 4 % of control
- T/C (dose: 200.0 mg/kg/injection, vehicle: carboxymethylcellulose (CMC)): 83 % of control
- T/C (dose: 200.0 mg/kg/injection, vehicle: methylcellulose (MC)): 27 % of control and 42 % of control

SMILES: CC1CCN(C(=O)CCCl)c2ccccc21 (stereo not given)
- T/C [2]: 101 % of control
- T/C (dose: 75.0 mg/kg/injection, vehicle: methylcellulose (MC)): 71 % of control
- T/C [1]: 82 % of control

SMILES: CC(C)CN(C)/N=N/c1nc[nH]c1C(N)=O
- T/C (dose: 25.0 mg/kg/injection, vehicle: carboxymethylcellulose (CMC)): 40 % of control
- T/C (dose: 37.5 mg/kg/injection, vehicle: carboxymethylcellulose (CMC)): 22 % of control

SMILES: Cc1cn(C2OC(CO)C(O)C2O)c(=O)[nH]c1=O (stereo not given)
- T/C (dose: 62.0 mg/kg/injection, vehicle: saline): 86 % of control
- T/C (dose: 125.0 mg/kg/injection, vehicle: saline): 78 % of control
- T/C (dose: 500.0 mg/kg/injection, vehicle: saline): 121 % of control
